Assay results: patent US8293769B2, “CSF-1R inhibitors, compositions, and methods of use” (Novartis AG, priority 2008, dated 2012)

Assays:
[1] = biological target: T1, cytoplasmic domain of the human CSF-1R (Homo sapiens, UniProt P07333); experiment: In vitro kinase assay for CSF-1R (AlphaScreen); assay type: biochemical; details: tested at about 1 μM; read-out: CSF1RK 1 percent inhibition
T1 construct: Recombinant protein corresponding to the cytoplasmic domain of the human CSF-1R; purchased Invitrogen Corporation, Carlsbad, Calif; PV3249
T1 sequence (P07333 539-972 limits assumed): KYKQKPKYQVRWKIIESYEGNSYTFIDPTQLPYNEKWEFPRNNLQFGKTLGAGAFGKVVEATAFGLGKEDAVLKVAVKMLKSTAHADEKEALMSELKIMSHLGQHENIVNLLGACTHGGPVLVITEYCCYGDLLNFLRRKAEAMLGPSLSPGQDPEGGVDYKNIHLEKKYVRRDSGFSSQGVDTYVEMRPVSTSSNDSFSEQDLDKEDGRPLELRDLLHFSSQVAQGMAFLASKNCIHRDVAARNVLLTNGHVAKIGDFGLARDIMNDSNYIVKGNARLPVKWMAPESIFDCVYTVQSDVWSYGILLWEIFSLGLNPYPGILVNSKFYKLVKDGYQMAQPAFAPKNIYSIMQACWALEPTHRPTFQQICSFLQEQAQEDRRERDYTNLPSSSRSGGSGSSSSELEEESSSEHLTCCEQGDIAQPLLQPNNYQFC
Method in brief: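 Recombinant CSF-1R cytoplasmic domain (4 nM) phosphorylated biotinylated peptide (0.05 μM) at 1.0 μM ATP in HEPES with Mg2+/Mn2+, 2 h at room temperature, compounds from 25 μM in 3-fold steps. AlphaScreen anti-phosphotyrosine PT66 detection; IC50 by non-linear regression.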

[2] = biological target: T2, cKIT (Homo sapiens, UniProt P10721); experiment: cKIT kinase in vitro biochemical assay (alphascreen); details: tested at about 1 μM; read-out: CKIT percent inhibition
T2 construct: The kinase domain of cKIT was assayed in 50 mM Hepes; purchased Upstate 14-559

[3] = biological target: T3, PDGFRb (Homo sapiens, UniProt P09619); experiment: PDGFRb kinase in vitro biochemical assay (alphascreen); details: tested at about 1 μM; read-out: PDGF RK BETA percent inhibition
T3 construct: The kinase domain of PDGFRβ was assayed in 50 mM Hepes; purchased Invitrogen P3082

[4] = test system: MNFS60 (murine AML cells); experiment: Cell viability assay in MCSF dependent MNFS60 cells (Cell Titer Glo); assay type: cell-based; details: Mus musculus; tested at about 1 μM; MCSF 10 ng/mL, 72 hrs; read-out: CPEC50 MNFS60MCSF percent inhibition
Method: Cell viability was assessed by Cell Titer Glo, Promega. MNFS60 (murine AML cells) were seeded in TC treated 96-well plates at a density of 5,000 cells per well in RPMI-1640, 10% FBS, and 1% Penicillin Streptomycin prior to addition of compound. Test compounds were serially diluted (3 fold) in DMSO to 500× the final concentration. For each concentration of test compound, 2 μl (500×) aliquots of compound or 100% DMSO (control) were diluted in 500 μl of culture medium that contained 2× final concentration of growth factor MCSF for 2× concentration and then diluted 1× on the cells. Final concentration of MCSF is 10 ng/mL. Cells were incubated for 72 hrs at 37° C., 5% CO2. After the incubation 100 μl Cell Titer Glo is added to each well to determine viable cells. The assay was performed according to the manufacturer's instruction (Promega Corporation, Madison, Wis. USA). Each experimental condition was performed in triplicate. Raw data was imported in Abase and EC50s calculated with XL-fit data analysis software: Relative light units of wells that contained cells without MCSF in the media and as a consequence didn't grow were defined as 100% inhibited.

T2 sequence (P10721 589-937 limits assumed): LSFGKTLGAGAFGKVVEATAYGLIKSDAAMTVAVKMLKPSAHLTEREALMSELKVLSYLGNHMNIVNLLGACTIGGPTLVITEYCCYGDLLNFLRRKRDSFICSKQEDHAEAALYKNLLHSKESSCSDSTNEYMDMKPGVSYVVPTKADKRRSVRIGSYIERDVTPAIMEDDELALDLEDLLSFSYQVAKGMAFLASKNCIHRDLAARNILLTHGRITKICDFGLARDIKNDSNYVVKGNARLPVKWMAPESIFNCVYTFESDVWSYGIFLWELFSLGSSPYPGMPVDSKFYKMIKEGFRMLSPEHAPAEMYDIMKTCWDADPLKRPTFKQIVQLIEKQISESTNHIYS
T3 sequence (P09619 600-962 limits assumed): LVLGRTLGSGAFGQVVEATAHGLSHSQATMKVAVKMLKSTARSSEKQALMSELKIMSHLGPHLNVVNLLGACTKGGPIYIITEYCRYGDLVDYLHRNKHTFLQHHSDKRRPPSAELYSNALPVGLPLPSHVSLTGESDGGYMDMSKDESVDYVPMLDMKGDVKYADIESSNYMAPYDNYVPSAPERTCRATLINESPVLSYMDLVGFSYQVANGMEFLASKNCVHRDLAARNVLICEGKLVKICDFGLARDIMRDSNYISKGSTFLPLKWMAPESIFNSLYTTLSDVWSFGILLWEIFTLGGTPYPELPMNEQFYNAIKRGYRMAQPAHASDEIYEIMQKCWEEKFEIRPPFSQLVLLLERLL

Row | Compound | inhibition at 1 µM [1] [%] | inhibition at 1 µM [2] [%] | inhibition at 1 µM [3] [%] | inhibition at 1 µM [4] [%]
1 | O[C@@H]1CCCC[C@H]1Nc1nc2ccc(Oc3cncc(-c4cncs4)c3)cc2s1 [Compound 70, (1R,2R)-2-(6-(5-(thiazol-5-yl)pyridin-3-yloxy)benzo[d]thiazol-2-ylamino) cyclohexanol] | 100 | 64 | 13 | 100
2 | C[C@H](Nc1nc2ccc(Oc3cc(-n4cncn4)ncn3)cc2s1)C1CCCCC1 [Compound 41, (S)-6-(6-(1H-1,2,4-triazol-1-yl)pyrimidin-4-yloxy)-N-(1-cyclohexylethyl) benzo[d]thiazol-2-amine] | 99 | 28 | 0 | 0
3 | O[C@@H]1CCCC[C@H]1Nc1nc2ccc(Oc3cncc(-c4cnccn4)c3)cc2s1 [Compound 84, (1R,2R)-2-(6-(5-(pyrazin-2-yl)pyridin-3-yloxy)benzo[d]thiazol-2-ylamnino) cyclohexanol] | 100 | 99 | 100 | 100
4 | Cn1cc(-c2nccc(Oc3ccc4nc(N[C@@H]5CCCC[C@H]5O)sc4c3)n2)cn1 [Compound 23, (1R,2R)-2-(6-(2-(1-methyl-1H-pyrazol-4-yl)pyrimidin-4-yloxy)benzo[d]thiazol-2-ylamino) cyclohexanol] | 100 | 19 | 7 | 100
5 | CNc1cc(Oc2ccc3nc(NCC4CCCCC4)sc3c2)ncn1 [Compound 13, N-(cyclohexylmethyl)-6-(6-(methylamino)pyrimidin-4-yloxy)benzo[d]thiazol-2-amine] | 98 | 42 | 30 | 18
6 | Nc1cc(Oc2ccc3nc(NCC4CCCCC4)sc3c2)ncn1 [Compound 8, 6-(6-aminopyrimidin-4-yloxy)-N-(cyclohexylmethyl) benzo[d]thiazol-2-amine] | 100 | 75 | 46 | 30
7 | CCn1cc(-c2cncc(Oc3ccc4nc(N[C@@H]5CCCC[C@H]5O)sc4c3)c2)cn1 [Compound 80, (1R,2R)-2-(6-(5-(1-ethyl-1H-pyrazol-4-yl)pyridin-3-yloxy)benzo[d]thiazol-2-ylamino)cyclohexanol] | 100 | 66 | 0 | 100
8 | N#Cc1ccc(-c2cncc(Oc3ccc4nc(N[C@@H]5CCCC[C@H]5O)sc4c3)c2)cn1 [Compound 73, 5′-(2-((1R,2R)-2-hydroxycyclohexylamino)benzo[d]thiazol-6-yloxy)-3,3′-bipyridine-6-carbonitrile] | 99 | 44 | 3 | 23
9 | CCN(CC)CCn1cc(-c2cncc(Oc3ccc4nc(N[C@@H]5CCCC[C@H]5O)sc4c3)c2)cn1 [Compound 81, (1R,2R)-2-(6-(5-(1-(2-(diethylamino)ethyl)-1H-pyrazol-4-yl)pyridin-3-yloxy)benzo[d]thiazol-2-ylamino)cyclohexanol] | 100 | 56 | 0 | 100
10 | COc1cc2ncnc(Oc3ccc4nc(NCC5CCCCC5)sc4c3)c2cc1OC [Compound 17, N-(cyclohexylmethyl)-6-(6,7-dimethoxyquinazolin-4-yloxy)benzo[d] thiazol-2-amine] | 100 | 99 | 98 | 100
11 | C[C@H](Nc1nc2ccc(Oc3ccnc(-c4ccc(N)nc4)n3)cc2s1)C1CCCCC1 [Compound 33, (S)-6-(2-(6-aminopyridin-3-yl)pyrimidin-4-yloxy)-N-(1-cyclohexylethyl) benzo[d]thiazol-2-amine] | 100 | 32 | 22 | 78
12 | Cn1ncc2c(Oc3ccc4nc(NCC5CCCCC5)sc4c3)ncnc21 [Compound 44, N-(cyclohexylmethyl)-6-(1-methyl-1H-pyrazolo[3,4-d]pyrimidin-4-yloxy)benzo[d]thiazol-2-amine] | 99 | 14 | 19 | 0
13 | c1nc(Oc2ccc3nc(NCC4CCCCC4)sc3c2)c2ccsc2n1 [Compound 37, N-(cyclohexylmethyl)-6-(thieno[2,3-d]pyrimidin-4-yloxy) benzo[d]thiazol-2-amine] | 100 | 75 | 39 | 0
14 | COc1cc2ncnc(Oc3ccc4nc(N[C@@H]5CCCC[C@H]5O)sc4c3)c2cc1OC [Compound 19, (1R,2R)-2-(6-(6,7-dimethoxyquinazolin-4-yloxy)benzo [d]thiazol-2-ylamino) cyclohexanol] | 100 | 34 | 30 | 100

More lines, main results first:

Row | inhibition at 1 µM [1] [%] | inhibition at 1 µM [2] [%] | inhibition at 1 µM [3] [%] | Compound | inhibition at 1 µM [4] [%]
15 | 100 | 59 | 1 | COc1cncc(-c2cncc(Oc3ccc4nc(N[C@@H]5CCCC[C@H]5O)sc4c3)c2)c1 [Compound 74, (1R,2R)-2-(6-(5′-methoxy-3,3′-bipyridin-5-yloxy)benzo [d]thiazol-2-ylamino) cyclohexanol] | 100
16 | 100 | 23 | 9 | O[C@@H]1CCCC[C@H]1Nc1nc2ccc(Oc3cncc(-c4cccnc4)n3)cc2s1 [Compound 96, (1R,2R)-2-(6-(6-(pyridin-3-yl)pyrazin-2-yloxy)benzo[d]thiazol-2-ylamino) cyclohexanol] | 32
17 | 100 | 60 | 12 | Cn1cc(-c2cncc(Oc3ccc4nc(N[C@@H]5CCCC[C@H]5O)sc4c3)c2)cn1 [Compound 46, (1R,2R)-2-(6-(5-(1-methyl-1H-pyrazol-4-yl)pyridin-3-yloxy)benzo[d]thiazol-2-ylamino)cyclohexanol] | 100
18 | 100 | 14 | 9 | CN1CCN(c2ccc(-c3cc(Oc4ccc5nc(N[C@@H]6CCCC[C@H]6O)sc5c4)cnc3Cl)cn2)CC1 [Compound 103, (1R,2R)-2-(6-(2-chloro-6′-(4-methylpiperazin-1-yl)-3,3′-bipyridin-5-yloxy)benzo[d]thiazol-2-ylamino)cyclohexanol] | 35
19 | 100 | 28 | 5 | O=C(c1cncc(-c2cncc(Oc3ccc4nc(N[C@@H]5CCCC[C@H]5O)sc4c3)c2)c1)N1CCOCC1 [Compound 75, (5′-(2-((1R,2R)-2-hydroxycyclohexylamino)benzo[d]thiazol-6-yloxy)-3,3′-bipyridin-5-yl) (morpholino)methanone] | 33
20 | 69 | 22 | 0 | Cn1nccc1-c1cc(Oc2ccc3nc(N[C@@H]4CCCC[C@H]4O)sc3c2)ncn1 [Compound 25, (1R,2R)-2-(6-(6-(1-methyl-1H-pyrazol-5-yl)pyrimidin-4-yloxy)benzo[d]thiazol-2-ylamino) cyclohexanol] | 14
21 | 100 | 24 | 0 | CN(C)c1ncc(-c2cncc(Oc3ccc4nc(N[C@@H]5CCCC[C@H]5O)sc4c3)c2)cn1 [Compound 76, (1R,2R)-2-(6-(5-(2-(dimethylamino)pyrimidin-5-yl)pyridin-3-yloxy)benzo [d]thiazol-2-ylamino) cyclohexanol] | 54
